The record followed here is PubChem BioAssay AID248 (DTP/NCI, 2004).

Molecules are shown by their SMILES. “And” between values parts separate entries of the source, which are not always exact repeats. Identical values can stand only once. Inconclusive results and toxic doses are left out.

For the test, the system named is L1210 leukemia ip in BDF1 mice, survival T/C. The test is described as follows: NCI In Vivo Anticancer Drug Screen. Data for tumor model L1210 Leukemia (intraperitoneal) in B6D2F1 (BDF1) mice. Particulars: endpoint: mean survival time, higher = longer survival. In a few lines:
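Transplantable tumor model; survival measured in treated vs vehicle control mice. Value = treated/control.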

[1] abbreviates: dose: 100.0 mg/kg/injection, schedule: Q01DX001 (ip), vehicle: saline with Tween-80.
Setting [2] is: dose: 200.0 mg/kg/injection, schedule: Q01DX001 (ip), vehicle: saline with Tween-80.
The mark [3] stands for this setting: dose: 400.0 mg/kg/injection, schedule: Q01DX001 (ip), vehicle: saline with Tween-80.
[4] abbreviates: dose: 100.0 mg/kg/injection, schedule: Q01DX009 (ip), vehicle: saline.
The mark [5] stands for this setting: dose: 100.0 mg/kg/injection, schedule: Q04DX003 (ip), vehicle: saline.
[6] abbreviates: dose: 200.0 mg/kg/injection, schedule: Q04DX003 (ip), vehicle: saline.
The mark [7] stands for this setting: dose: 400.0 mg/kg/injection, schedule: Q01DX009 (ip), vehicle: saline.
Setting [8] is: dose: 400.0 mg/kg/injection, schedule: Q04DX003 (ip), vehicle: saline.
Setting [9] is: dose: 50.0 mg/kg/injection, schedule: Q01DX009 (ip), vehicle: saline with Tween-80.
Setting [10] is: dose: 100.0 mg/kg/injection, schedule: Q01DX009 (ip), vehicle: saline with Tween-80.
[11] abbreviates: dose: 200.0 mg/kg/injection, schedule: Q01DX009 (ip), vehicle: saline with Tween-80.
[12] abbreviates: dose: 100.0 mg/kg/injection, schedule: Q01DX001 (ip), vehicle: saline.
Where [13] appears, read: dose: 200.0 mg/kg/injection, schedule: Q01DX001 (ip), vehicle: saline.
Where [14] appears, read: dose: 100.0 mg/kg/injection, schedule: Q01DX001 (ip), vehicle: carboxymethylcellulose (CMC).
Where [15] appears, read: dose: 200.0 mg/kg/injection, schedule: Q01DX001 (ip), vehicle: carboxymethylcellulose (CMC).
[16] abbreviates: dose: 400.0 mg/kg/injection, schedule: Q01DX001 (ip), vehicle: carboxymethylcellulose (CMC).
The mark [17] stands for this setting: dose: 50.0 mg/kg/injection, schedule: Q04DX002 (ip), vehicle: saline with Tween-80.
Where [18] appears, read: dose: 400.0 mg/kg/injection, schedule: Q01DX009 (ip), vehicle: saline with Tween-80.
The mark [19] stands for this setting: dose: 100.0 mg/kg/injection, schedule: Q04DX003 (ip), vehicle: saline with Tween-80.
[20] abbreviates: dose: 200.0 mg/kg/injection, schedule: Q04DX003 (ip), vehicle: saline with Tween-80.
Setting [21] is: dose: 400.0 mg/kg/injection, schedule: Q04DX003 (ip), vehicle: saline with Tween-80.
[22] abbreviates: dose: 100.0 mg/kg/injection, schedule: Q01DX009 (ip), vehicle: Klucel (hydroxypropylcellulose) (HPC).
[23] abbreviates: dose: 200.0 mg/kg/injection, schedule: Q01DX009 (ip), vehicle: Klucel (hydroxypropylcellulose) (HPC).
[24] abbreviates: dose: 400.0 mg/kg/injection, schedule: Q01DX009 (ip), vehicle: Klucel (hydroxypropylcellulose) (HPC).

On to `Nc1cc(NC(c2ccccc2)c2ccccc2)c([N+](=O)[O-])c(N)n1`, for which the T/C was 98 % of control under setting [1], 98 % of control under setting [2] and 93 % of control under setting [3].

With `Nc1c(S(=O)(=O)O)ccc2c1C(=O)c1ccccc1C2=O`, the T/C is, setting by setting: under setting [4], 90 % of control; under setting [5], 101 % of control; (dose: 200.0 mg/kg/injection, schedule: Q01DX009 (ip), vehicle: saline) 97 % of control; under setting [6], 96 % of control; under setting [7], 92 % of control; under setting [8], 91 % of control.

Turning to `CN(C)[C@@H]1C(=O)C(C(=O)NCNc2nc(=S)c3[nH]cnc3[nH]2)=C(O)[C@@]2(O)C(=O)C3=C(O)c4c(O)cccc4[C@@](C)(O)[C@H]3C[C@@H]12`, the T/C is, setting by setting: (dose: 75.0 mg/kg/injection, schedule: Q01DX Z (ip), vehicle: carboxymethylcellulose (CMC)) 119 % of control; (dose: 125.0 mg/kg/injection, schedule: Q01DX Z (ip), vehicle: carboxymethylcellulose (CMC)) 121 % of control; (dose: 250.0 mg/kg/injection, schedule: Q01DX Z (ip), vehicle: carboxymethylcellulose (CMC)) 95 % of control.

In the case of `CCCCCCCCN1CCCNCC1`, the T/C (dose: 6.25 mg/kg/injection, schedule: Q01DX009 (ip), vehicle: saline) is 96 % of control; the T/C (dose: 12.5 mg/kg/injection, schedule: Q01DX009 (ip), vehicle: saline) is 102 % of control; the T/C (dose: 25.0 mg/kg/injection, schedule: Q01DX009 (ip), vehicle: saline) was 96 % of control; the T/C (dose: 25.0 mg/kg/injection, schedule: Q04DX003 (ip), vehicle: saline) is 121 % of control; the T/C (dose: 50.0 mg/kg/injection, schedule: Q04DX003 (ip), vehicle: saline) was 109 % of control; the T/C under setting [5] was 87 % of control.

For the molecule `COc1ccc(OC(=O)Nc2ccc(Cl)cc2Cl)cc1`, the T/C by setting is: under setting [9], 102 % of control; under setting [10], 91 % of control; under setting [11], 98 % of control.

Regarding `O=[N+]([O-])c1ccc(Sc2ccsc2)c([N+](=O)[O-])c1`, the T/C under setting [12] was 101 % of control and the T/C under setting [13] is 98 % of control.

As to `O=C(O)C(CO)c1ccc(F)cc1` (configuration not stated), the T/C is, setting by setting: under setting [14], 108 % of control; under setting [15], 106 % of control; under setting [16], 108 % of control.

In the case of `CC(=O)Oc1ccc(/C=N/NC(N)=S)nc1`, the T/C (dose: 24.0 mg/kg/injection, schedule: Q03HX024 (ip), vehicle: saline with Tween-80) is 212 % of control and the T/C (dose: 36.0 mg/kg/injection, schedule: Q03HX024 (ip), vehicle: saline with Tween-80) was 339 % of control.

For `O=C(O)CC1CCC(NC(=O)NCCCl)CC1` (configuration not stated), the T/C reads like this: under setting [1], 105 % of control; under setting [2], 102 % of control.

As for `CN(C)CCOC(=O)c1ccccc1C=O`, the T/C was 105 % of control (dose: 100.0 mg/kg/injection, schedule: Q04DX002 (ip), vehicle: Klucel (hydroxypropylcellulose) (HPC)); 98 % of control (dose: 200.0 mg/kg/injection, schedule: Q04DX002 (ip), vehicle: Klucel (hydroxypropylcellulose) (HPC)); 102 % of control (dose: 400.0 mg/kg/injection, schedule: Q04DX002 (ip), vehicle: Klucel (hydroxypropylcellulose) (HPC)).

For `CC(C)(C)c1cc(C[N+](C)(C)C)cc(C(C)(C)C)n1`, the T/C reads like this: under setting [17], 92 % of control; (dose: 100.0 mg/kg/injection, schedule: Q04DX002 (ip), vehicle: saline with Tween-80) 99 % of control.

For the molecule `Cc1cccc(C)c1NC(=S)N1CCC(CCCC2CCN(C(=S)Nc3c(C)cccc3C)CC2)CC1`, the T/C under setting [10] is 93 % of control and 98 % of control; the T/C under setting [11] was 95 % of control and 105 % of control; the T/C under setting [18] was 93 % of control and 98 % of control.

With `CCN(CC)CCN1C(=O)CN=C(c2ccc[nH]2)c2cc(Cl)ccc21`, the T/C under setting [10] was 121 % of control; the T/C under setting [19] was 100 % of control; the T/C under setting [11] was 106 % of control; the T/C under setting [20] is 94 % of control; the T/C under setting [18] is 117 % of control; the T/C under setting [21] is 96 % of control.

In the case of `O=C(Nc1ccccc1)Nc1ccccc1`, the T/C under setting [9] is 96 % of control; the T/C under setting [12] is 97 % of control; the T/C under setting [10] was 91 % of control; the T/C (dose: 100.0 mg/kg/injection, schedule: Q04DX003 (ip), vehicle: Klucel (hydroxypropylcellulose) (HPC)) was 90 % of control; the T/C under setting [13] was 92 % of control; the T/C under setting [11] is 103 % of control. For the same molecule, the T/C is, setting by setting: (dose: 200.0 mg/kg/injection, schedule: Q04DX003 (ip), vehicle: Klucel (hydroxypropylcellulose) (HPC)) 95 % of control; (dose: 400.0 mg/kg/injection, schedule: Q01DX001 (ip), vehicle: saline) 94 % of control; (dose: 400.0 mg/kg/injection, schedule: Q04DX003 (ip), vehicle: Klucel (hydroxypropylcellulose) (HPC)) 96 % of control.

With `COc1cccc(NC(=O)Nc2cccc(C(F)(F)F)c2)c1`, the T/C under setting [22] was 96 % of control, the T/C under setting [23] was 101 % of control and the T/C under setting [24] is 101 % of control.

In the case of `CC(Br)(C(=O)O)C(Br)c1ccccc1` (configuration not stated), the T/C under setting [19] is 90 % of control, the T/C under setting [20] was 95 % of control and the T/C under setting [21] is 88 % of control.

`C[n+]1cccc(C(=O)N/N=C/c2ccccc2)c1`: the T/C reads like this: under setting [1], 96 % of control; under setting [2], 96 % of control; under setting [3], 96 % of control.

Turning to `CCC1(Cc2ccsc2)C(=O)NC(=O)NC1=O`, the T/C reads like this: under setting [14], 103 % of control; under setting [15], 94 % of control; under setting [16], 100 % of control.

As to `CCOC(=O)/C(C#N)=C(/C)C1CC1`, the T/C (dose: 6.25 mg/kg/injection, schedule: Q01DX009 (ip), vehicle: Klucel (hydroxypropylcellulose) (HPC)) was 95 % of control; the T/C (dose: 12.5 mg/kg/injection, schedule: Q01DX009 (ip), vehicle: Klucel (hydroxypropylcellulose) (HPC)) is 105 % of control; the T/C (dose: 25.0 mg/kg/injection, schedule: Q01DX009 (ip), vehicle: Klucel (hydroxypropylcellulose) (HPC)) was 97 % of control; the T/C (dose: 75.0 mg/kg/injection, schedule: Q01DX001 (ip), vehicle: carboxymethylcellulose (CMC)) was 95 % of control; the T/C (dose: 150.0 mg/kg/injection, schedule: Q01DX001 (ip), vehicle: carboxymethylcellulose (CMC)) was 105 % of control.

Turning to `O=C(CNS(=O)(=O)c1ccccc1)c1ccc(Cl)cc1Cl`, the T/C by setting is: under setting [22], 94 % of control; under setting [23], 105 % of control; under setting [24], 95 % of control.

With `N=c1ccccn1CC(O)COc1ccccc1` (configuration not stated), the T/C under setting [14] is 92 % of control.

Turning to `O=S(=O)(Oc1ccc(Cl)cc1)c1ccc(Cl)cc1`, the T/C was 88 % of control under setting [4]; 103 % of control under setting [5]; 98 % of control under setting [6]; 90 % of control under setting [7]; 103 % of control under setting [8].

`c1ccc2c(c1)Nc1ccccc1[As]2C1CCCCC1`: the T/C is 99 % of control (dose: 12.5 mg/kg/injection, schedule: Q04DX002 (ip), vehicle: saline with Tween-80); 99 % of control (dose: 25.0 mg/kg/injection, schedule: Q04DX002 (ip), vehicle: saline with Tween-80); 101 % of control under setting [17].
